This is an account of results in patent US8426623B2, “Surface modified nanoparticle and preparation method thereof” (National Tsing Hua University, priority 2010, dated 2013).

This assay can be described thus: Anti-oxidative activity of phenol compound (H2O2 scavenging). Particulars: substance/H2O2=1, reacted with H2O2 before H2O2 was measured; versus unreacted H2O2 control; FIG. 1. The protocol: H2O2 was the tested ROS in testing anti-oxidative activity of HPPDA. There are 3 sets in this experiment, including H2O2, HPPDA/H2O2 and ascorbic acid/H2O2, where HPPDA/H2O2=1, ascorbic acid/H2O2=1, and HPPDA, ascorbic were respectively reacted with H2O2 before H2O2 was measured. The control is represented with H2O2 without undergoing any reaction.
Referring to FIG. 1, as the comparison result with control has shown, the concentration of H2O2 was lowered after reacted with ascorbic acid and HPPDA (# for significant difference, p<0.01). Particularly, H2O2 concentration was lowered by ascorbic acid with 30 μM and lowered by HPPDA with 40 μM; this means better H2O2 absorption by HPPDA than ascorbic acid.

Consider `O=C(O)/C=C/C=C/c1ccc(O)cc1` [HPPDA, (2E,4E)-5-(4-hydroxyphenyl)penta-2,4-dienoic acid], for which the “H2O2 concentration lowered by” value is 40 µM.

`O=C1O[C@H]([C@@H](O)CO)C(O)=C1O` [ascorbic acid]: the “H2O2 concentration lowered by” value is 30 µM.
